Measured values reported in patent publication US20200354331A1, “ICARIIN DERIVATIVES” (H. LEE MOFFITT CANCER CENTER AND RESEARCH INSTITUTE, INC., priority 2014, published 2020).
“Also recorded” adds a separate entry of the source. Where two headings read alike, the source gives them in different places.

Assays:
[1] = test system: BMNCs from three healthy donors; test: Colony formation (CFU-E, BFU-E, CFU-GM) in MethoCult H4434; type: cell-based; settings: healthy donor BMNCs treated 48 hours, different concentrations
Description: FIG. 2 depicts the effect, or lack thereof, of ICA and ICT on hematopoiesis. BMNCs from three healthy donors were treated with ICA or ICT for 48 hours after which colony formation was assessed using MethoCult H4434 complete medium with cytokines. CFU-E, BFU-E and CFU-GM were indentified and counted using an inverted light microscope. Each bar represents the mean results of three individuals with duplicate plates. Results are expressed as means±SD.
Specifically, BMNCs from three healthy donors were treated with different concentrations of ICA or ICT for 48 hours after which colony formation was assessed using MethoCult H4434 complete medium with cytokines. The mixture was placed in 35-mm culture dishes (1×10^5 cells/each dish) and incubated at 37° C. in 5% CO2 for approximately 7-14 days. After incubation, colonies of CFU-E, BFU-E and CFU-GM were indentified and counted using an inverted light microscope. […] Although, these cells were obtained from spleens, it was also found ICA/ICT has a similar effect on MDSCs isolated from tumor tissue. Here, Gr1^+ cells were isolated from tumors of 4T1 tumor-bearing mice. […] Bars represent the relative percentage of MDSC as compared to DMSO treated cells measured by flow cytometry (FIG. 3A). The production of ROS (FIG. 3B) and NO (FIG. 3C) activity of purified MDSC from tumor tissue was also measured.

PBMC [2] = test: IC50 / toxicity in cells; type: cell-based
PP2A = biological target: T1, PP2A (Homo sapiens, UniProt P67775); test: PP2A activity in PBMC lysates, in vitro phosphatase assay kit; type: cell-based; settings: 48 hours, 1 μM
T1 construct: endogenous in cells; host or cells: human PBMC
Description: FIG. 9 depicts the effect of ICA and ICT on the activity of PP2A. Human PBMC were cultured for 48 hours with media, DMSO, 1 μM of ICA or ICT. The cell lysates were used to analyze PP2A activity using a commercial in vitro phosphatase assay kit (Millipore). Error bars represent the SEM of three separate experiments.
To understand if there is a link correlating S100A9/SIGLEC3 and PDE5 activation, SJCRH30 cells were transfected with either vector, S100A9 or SIGLEC 3. Seventy two hours post-transfection cells were lysed and assessed by Western Blot for either PDE5 or its phosphorylated counterpart. […] This represents a new pathway of MDSC activation that can be specifically targeted by ICA, ICT, and their derivatives disclosed herein.

[3] = test system: NK cells and lymphokine-activated killer cells; settings: 0.1 to 1.0 microgram/ml; tumor patients and healthy donors; cited from earlier work
[4] = test system: CD16 (FcγRIII) in CD3− CD56+ NK cells; test: Surface expression of CD16 in NK cells (flow cytometry); type: cell-based; settings: PBMC from healthy donors, 48 hours treatment
Description: FIG. 16 depicts the effect of ICA and ICT treatment on the surface expression of CD16 (FcγRIII) in NK cells. PBMC from healthy donors were treated with ICA/ICT or DMSO for 48 hours before analysis of CD16 expression by flow cytometry. NK cells were defined as CD3^− population and analyzed for the presence of CD16±CD56^+ cells as indicated.
An alternative strategy can be performed by measuring NK-mediated antibody dependent cytotoxicity (ADCC) on SIGLEC3^+ MDSC. […] This is particularly of interest, because these Fc receptors can be critical for the development of ADCC, a cytotoxic function of NK cells. This function can involve the activation of NK cells through the ligation of CD16 with an antibody already bound to a target cell which can trigger the target cell to undergo apoptosis through the release of cytotoxic granules containing perform and granzymes. Humanized anti-SIGLEC3/CD33 antibodies can be used to apply a strategy to deplete MDSC by NK-mediated ADCC.

[5] = biological target: GMP-specific recombinant bovine phosphodiesterase Type V (Bos taurus, UniProt Q28156); test: PDE5 phosphodiesterase inhibition, PDE-Glo system; type: biochemical
[6] = test system: IL-10, TGFb, TNFa, ARG2 and NOS2; test: Expression of suppressive factors in PBMC (Q-PCR); type: cell-based; settings: healthy PBMC, 48 hours, 20 μM
Description: Healthy PBMC were cultured for 48 hours with 20 μM the gene expression of suppressive factors measured by the DDCt method. The experimental control is PBMC treated with DMSO and the internal control was GAPDH. Error bars indicate the SEM of three separate donors/experiments.

MCF-7 [7] = test: IC50 of ICT in cell lines; type: cell-based; settings: Homo sapiens, MCF7
B16 = test: IC50 of ICT in cell lines; type: cell-based; settings: Mus musculus
CD33 and iNOS = test: Expression of CD33 and iNOS on MDS-BM (flow cytometry, Q-PCR); type: cell-based; set-up: concentration or dose not given beside the values; settings: 48 hours, 20 ICT
Raji = test: IC50 of ICT in cell lines; type: cell-based; settings: Homo sapiens
PBMC [8] = test: Apoptosis rates of ICT in cell lines; type: cell-based
IL-10 and TGFb = test: Expression of IL-10 and TGFb on LPS-treated PBMC (Q-PCR); type: cell-based; settings: 48 hours, 20 μM
Description: The relative expression of IL-10 and TGFb by Q-PCR are shown in FIGS. 19A and 19B, respectively. Healthy PBMC were cultured for 48 hours with 20 μM ICT and the gene expression measured by the DDCt method. The experimental control is PBMC treated with DMSO for 48 hours and the internal control was GAPDH. Error bars indicate the SEM of three separate donors/experiments.

Bone marrow = test: Apoptosis rates of ICT in cell lines; type: cell-based
K562 [9] = test: IC50 of ICT in cell lines; type: cell-based; settings: Homo sapiens
MCF-7 [10] = test: Apoptosis rates of ICT in cell lines; type: cell-based
4T1 [11] = test: Apoptosis rates of ICT in cell lines; type: cell-based
K562 [12] = test: Apoptosis rates of ICT in cell lines; type: cell-based
4T1 [13] = test: IC50 of ICT in cell lines; type: cell-based; settings: Mus musculus

T1 sequence (P67775 whole entry): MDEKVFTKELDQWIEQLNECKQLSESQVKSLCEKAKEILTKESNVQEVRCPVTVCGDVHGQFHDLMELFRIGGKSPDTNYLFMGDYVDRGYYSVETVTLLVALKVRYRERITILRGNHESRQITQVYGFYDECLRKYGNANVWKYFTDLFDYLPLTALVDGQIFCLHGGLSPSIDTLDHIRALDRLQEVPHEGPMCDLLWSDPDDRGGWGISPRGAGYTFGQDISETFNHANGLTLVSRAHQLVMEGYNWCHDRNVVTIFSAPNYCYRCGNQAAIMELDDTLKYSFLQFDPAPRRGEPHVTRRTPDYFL

For `COc1ccc(-c2oc3c(CC=C(C)C)c(O[C@@H]4O[C@H](CO)[C@@H](O)[C@H](O)[C@H]4O)cc(O)c3c(=O)c2O[C@@H]2O[C@@H](C)[C@H](O)[C@@H](O)[C@H]2O)cc1` [ICA, Icariin], the “effect on hematopoiesis (colony formation)” value [1] was “do not affect hematopoiesis”, the IC50 (PBMC [2]) was greater than 100 µM and the “phosphatase activity of PP2A” value (PP2A) was “up-regulate the phosphatase activity of PP2A in vitro”. The “NK cell activity and LAK activity” value [3] was “increase NK cell activity and lymphokine-activated killer cell (LAK) activity”, the “expression level of Fc receptor (CD16, FcγRIII) in NK cells” value [4] was “increase the expression level of Fc receptor” and the “phosphodiesterase (enzymatic) activity of PDE5” value [5] was “block the phosphodiesterase activity of PDE5; also recorded: inhibit the enzymatic activity of PDE5”.
For `COc1ccc(-c2oc3c(CCC(C)(C)O)c(O)cc(O)c3c(=O)c2O)cc1` [ICT, 3,5,7-trihydroxy-4′-methoxy-8-(3-hydroxy-3-methylbutyl)-flavone], the “expression of suppressive factors in PBMC” value [6] was “down-regulate the expression of suppressive factors in PBMC”, the IC50 (MCF-7 [7]) was 23.2 µM and the IC50 (B16) was 25.8 µM. The “effect on hematopoiesis (colony formation)” value [1] was “do not affect hematopoiesis”, the “expression of CD33 and iNOS on MDS-BM” value (CD33 and iNOS) was “down-regulate the expression of CD33 and iNOS on MDS-BM” and the IC50 (PBMC [2]; read-out: IC50) was greater than 100 µM. For the same molecule, the IC50 (Raji) was 25.6 µM, the “phosphatase activity of PP2A” value (PP2A) was “up-regulate the phosphatase activity of PP2A in vitro” and the Apoptosis rates (PBMC [8]; 5 μM) was 4.6%. The Apoptosis rates (PBMC [8]; 10 μM) was 5.5%, the Apoptosis rates (PBMC [8]; 20 μM) was 6.9% and the “expression of IL-10 and TGFb on LPS-treated PBMC” value (IL-10 and TGFb) was “down-regulate the expression of the suppressive cytokine IL-10 and TGFb on LPS-treated PBMC”. The Apoptosis rates (Bone marrow; 5 μM) was 2.7%, the Apoptosis rates (Bone marrow; 10 μM) was 4.3% and the Apoptosis rates (Bone marrow; 20 μM) was 4.8%. The IC50 (K562 [9]) was 50.5 µM, the Apoptosis rates (MCF-7 [10]; MCF-7, 5 μM) was 3.9% and the Apoptosis rates (MCF-7 [10]; MCF-7, 10 μM) was 4.1%. The Apoptosis rates (MCF-7 [10]; MCF-7, 20 μM) was 6.1%, the “expression level of Fc receptor (CD16, FcγRIII) in NK cells” value [4] was “increase the expression level of Fc receptor” and the Apoptosis rates (4T1 [11]; 4T1, 5 μM) was 4.0%. For the same molecule, the Apoptosis rates (4T1 [11]; 4T1, 10 μM) was 6.3%, the Apoptosis rates (4T1 [11]; 4T1, 20 μM) was 7.1% and the “phosphodiesterase (enzymatic) activity of PDE5” value [5] was “block the phosphodiesterase activity of PDE5; also recorded: inhibit the enzymatic activity of PDE5”. It also gave an Apoptosis rates (K562 [12]; K562, 5 μM) of 5.5%, an Apoptosis rates (K562 [12]; K562, 10 μM) of 6.7% and an Apoptosis rates (K562 [12]; K562, 20 μM) of 7.8%. The IC50 (4T1 [13]) was 6.7 µM.
